# Data published in patent US20100297109A1, “METHODS FOR INHIBITING FASCIN” (Cornell University, priority 2007, published 2010).
# Legend:
# [1] = test system: MDA-MB-231 human breast tumor cells; assay: Experimental lung metastasis of MDA-MB-231 cells in NOD-SCID mice, bioluminescence imaging; type: in vivo, mouse; conditions: 10 mg/kg I.P. every other day for seven weeks
# Experimental: Breast Tumor Metastasis in Mice. All animal work was performed in compliance with the Institutional Animal Care and Use Committee of the Weill Medical College. Spontaneous 4T1 mouse breast tumor metastasis assay was done as described previously (Shan et al. 2005). NOD-SCID immunodeficient mice were used for experimental lung metastasis experiments. MDA-MB-231 human breast tumor cells expressing the TGL reporter were trypsinized and washed with PBS. This artificial TGL reporter gene encodes a triple fusion protein with herpes simplex virus 1 thymidine kinase fused to the N-terminus of enhanced GFP and firefly luciferase fused to the C-terminus of GFP (Ponomarev et al. 2004). Subsequently 1×10^6 cells in 0.2 ml PBS were injected into the lateral tail vein. […] Three randomly selected fields (10×objectives) on the lower side of the insert were photographed, and the cells on the lower surface of the insert were counted.
# Third, the experimental metastasis model with MDA-MB-231 human tumor cells in immunodeficient mice was used to investigate the role of fascin in tumor metastasis and the effect of macroketone on the metastasis of human tumors in mice (FIG. 8 E-H). […] GFP-positive cells were enriched by fluorescence-activated cell sorting. […] The metastasis of tumor cells to the lung was monitored by non-invasive bioluminescence imaging (Minn et al. 2005). […]
# fascin = fascin (Homo sapiens, UniProt Q16658); type: biochemical; parameters: GST (N); made in house; host or cells: Escherichia coli BL21; conditions: fluorescence microscopy
# Experimental: Whole cell lysates from 4T1 mouse breast tumor cells were made. After preclearing the cell lysate with immobilized neutravidin biotin binding protein (Pierce, IL, USA) to remove biotin and avidin-binding proteins, the cell lysates were loaded to a column packed with the biotin-labeled macroketone (conjugated to neutravidin beads). A control column packed with free biotin and neutravidin beads was run side-by-side. After washing the column with 10 bed volumes of lysis buffer with 300 mM NaCl, the bound proteins were eluted with 0.1 M Glycine-HCl at pH 2.8 according to the manufacturer's instruction. […] Protein Expression and Purification. Recombinant GST-fascin fusion protein was produced in BL21 Escherichia coli. A 1-liter culture was grown to an A600 reading of 1.0 and then induced by addition of 0.3 mM isopropyl 1-thio-D-galactopyranoside (IPTG) for 12 hours at 25° C. Cells were flash frozen and then lysed by sonication in Tris-buffered saline. The supernatant was then incubated with glutathione-Sepharose for 2 h at 4° C. After extensive washing, GST-fascin was eluted and concentrated with a Centricon Plus-20 (Millipore). To remove the GST tag from the fusion protein, beads were incubated with thrombin overnight at 4° C. The supernatant was collected and concentrated. […] Actin bundling activity was measured by low speed centrifugation assay and fluorescence microscopy. […]
structure (smiles),measurement,setting,value
"COC1C=CCCCCC(=O)CCC(C)=CC(C)C1O (stereo not drawn) [macroketone, Migrastatin ketone]",reduction of metastasis of MDA-MB-231 cells (photon flux),[1],> 80%
same,inhibition of formation of F-actin bundles,fascin; fascin present,> 80%
same,ability of fascin to bundle actin polymers,fascin; preincubation of fascin,decreased the ability of fascin to bundle actin polymers
